The source of these data is US9770045B2, “Preservation of animal feed and hydrolysis of polysaccharides using amino acids as salts or with acids” (priority 2015, dated 2017).

A short description of series [1]: Cellulose (carboxymethylcellulose) hydrolysis, DNS sugar assay. Conditions: carboxymethylcellulose (FIG. 2, FIG. 5). From the text: Dinitrosalicyclic Acid Sugar Assay. The DNS sugar assay utilizes the reduction of dinitrosalicyclic acid by simple monosaccharides to create a change in color, respective the concentration of sugar in each sample (Rivers). A 1% dinitrosalicyclic acid solution was created with 0.25 M NaOH and […]. Another solution of 40% Sodium Potassium Tartrate was made to act as a color stabilizer to be added to the sample after the reaction. This procedure requires the experimental sample to be mixed with the DNS Assay solution and heated at approximately 100° C. for ten minutes. After the colorimetric reaction has occurred, the sodium potassium tartrate solution is added to stabilize the color change. The resulting color change can be measured using the wavelength of 570 nm.
Cellulose Hydrolysis. 5 mL of each acid was added to a glass container. Then, 0.1 grams of carboxymethylcellulose was slowly poured in to each sample. The containers were then capped and placed in a 60° C. incubator. At specific time intervals, 0.4 mL were taken and neutralized by 0.6 mL of a strong KOH solution to a pH above 10 in 1.5 mL microfuge tubes. Then 0.2 mL of the DNS Assay solution was added to each sample, which were then placed in a boiling water bath for ten minutes. […] The absorbance of the samples were then measured at 570 nm in a UV-Vis spectrophotometer and compared to a standard curve.

For series [2] the following is noted: 60° C., one hour (FIG. 3). As for the experimental part:
Seaweed Hydrolysis. […] The samples were heated to 60° C. Approximately 0.1 grams of seaweed was measured and added to each sample. The acid/seaweed mixtures were placed in an incubator set at 60° C. for one hour. At twenty minute intervals, 0.4 mL were taken from the samples and neutralized to a high pH (>10) with 0.6 mL of a concentrated aqueous NaOH solution.
Seaweed DNS Assay. To each of the neutralized mixtures, 0.2 mL of DNS solution (1% dinitrosalicyclic acid, 0.02% phenol, 0.25 M NaOH) was added. These samples were then placed in boiling water for approximately ten minutes until the brown color remained stable. The samples were then removed and 0.4 mL of a 40% potassium sodium tartrate solution was added to stabilize the color. The solutions were allowed to cool to room temperature and then the absorbance was recorded at 570 nm.

The conditions of series [3]: for rate in hydrolyzing switch grass: 60° C., one hour (FIG. 4). As for the experimental part:
Switch Grass Hydrolysis. […] The samples were heated to 60° C. Approximately 0.1 grams of switch grass was measured and added to each sample. The acid/switch grass mixtures were placed in an incubator set at 60° C. for one hour. At 0, 10, 20, 40, and 60 minutes, 0.4 mL were taken from the samples and neutralized to a high pH (>10) with 0.6 mL of a concentrated aqueous NaOH solution.
Switch Grass DNS Assay. To each of the neutralized mixtures, 0.2 mL of DNS solution (1% dinitrosalicyclic acid, 0.02% phenol, 0.25 M NaOH) was added. These samples were then placed in boiling water for approximately ten minutes until the brown color remained stable. Then 0.2 mL of each sample was mixed with 0.2 mL of a 40% potassium sodium tartrate solution and 1 mL of deionized water. The solutions were allowed to cool to room temperature and then the absorbance was recorded at 570 nm.

Counter-ions that a name gives are not always drawn.

For `NCC(=O)O` [6M Glycine—HCl, glycine hydrochloride], in series [1], the hydrolysis rate result is “equal to that of Oil Safe AR®”. For the same compound, in series [2], the “rate in hydrolyzing seaweed” value is on record as “about the same rate”. For the same compound, in series [3], the “rate in hydrolyzing switch grass” value was “about the same rate” and the “pH change after switch grass hydrolysis” value is on record as “lowered”.

Regarding `Cl` [6M HCl, hydrochloric acid, reference compound], the “rate in hydrolyzing seaweed” value in series [2] was “about the same rate”. In addition, in series [3], the “rate in hydrolyzing switch grass” value is “about the same rate” and the “pH change after switch grass hydrolysis” value is given as “increased”.
